According to patent US7589122B2, “Method for soybean aphid population suppression and monitoring using aphid- and host-plant-associated semiochemical compositions” (MSTRS Technologies, Inc., priority 2004, dated 2009):

Columns and labels:
[1] = system: syrphids; assay: Field trapping of predatory insects with attractant compounds: syrphids; assay type: in vivo, Syrphidae (syrphids); details: 100 mg bait, Iowa soybean field 2003 (FIG. 7)
Protocol: (§1) FIG. 7 is a graph of the mean number of predatory insects caught in traps baited with 100 mg of methyl salicylate and 2-phenylethanol, and the control from an Iowa soybean field in 2003.
(§2) Field Test. Field trapping tests were conducted in soybean field from 2002 to 2003 (Ames, Iowa). Synthetic compounds at a dose of 100 mg (for plant volatiles) and 10 mg for soybean aphid pheromones were prepared in either hexane or methylene chloride or ether. Medical peerless cotton rolls (5 cm long, 100% cotton) were used as dispensers for loading plant volatiles, and borosilicate glass vials (Chromal) were housed for pheromones. Two trap designs were used, and the first type is similar to that described in Zhu et al., (1999), and the second one is the most common trap used for aphid trapping, the water trap. The trap was hung from bamboo stakes, 1.2 m above the ground. Within a replicate (N=5-6), traps were set at least 10 m apart. The traps were checked daily, and trap position within a series was randomized to minimize the effects of habitat heterogeneity.

[2] = system: antennae of winged soybean aphids, Aphis glycines; assay: EAG responses of winged soybean aphids to soybean associated volatile compounds; details: relative to the control (FIG. 3)
Description: FIG. 3 is a graph of EAG responses of winged soybean aphids, Aphis glycines, to some soybean associated volatile compounds.
EAG responses of soybean aphids to soybean plant volatiles and their attractiveness in the field. […] All other compounds elicited EAG responses seemed not to be attractive to winged aphids relative to the control.

[3] = system: winged soybean aphids; assay: Field trapping of winged soybean aphids with selected soybean volatile compounds; assay type: in vivo, Aphis glycines; details: traps baited with synthetic soybean volatile, 100 mg, soybean field (FIG. 4)
Protocol: FIG. 4 is a graph of the number of winged soybean aphids caught per trap baited with some selected soybean volatile compounds (synthetic) in the soybean field.
as §2

[4] = system: Coccinella septempunctata; assay: Field trapping of predatory insects with attractant compounds: Coccinella septempunctata; assay type: in vivo; details: 100 mg bait, Iowa soybean field 2003 (FIG. 7)
Protocol: as §1
FIG. 8 is a graph of the mean number of Coccinella septempunctata caught in traps baited with different doses of methyl salicylate from an Iowa soybean field in 2004.
as §2

[5] = system: soybean aphids on soybean plants; assay: Caged greenhouse experiment: effect of methyl salicylate on soybean aphid colonizing and growth; assay type: in vivo, Aphis glycines
Protocol: The effect of Methyl salicylate on soybean aphid growth. This experiment was conducted in the green house, where cages of soybean plants treated with dispensers loaded 4 g of synthetic methyl salicylate. Newly emerged winged soybean aphids on one cut-soybean leaf (dried) were placed in the middle of the cage, which is 30 cm away from the potted soybean plants (V2 stage) with or without treatment of methyl salicylate. For plants treated with methyl salicylate, the cotton roll was placed in the center of the plant, and was replaced with a newly loaded one after one week. The number of winged aphids on each plant were counted 2 hours after introducing the winged aphids, and continued for a week. The number of wingless soybean aphids produced from those landed winged aphids was also counted everyday for about two weeks.

[6] = system: Harmonia axyridis; assay: Field trapping of predatory insects with attractant compounds: Harmonia axyridis; assay type: in vivo; details: 100 mg bait, vs control (FIG. 7)
Protocol: as §1, §2

[7] = system: male and gynoparous female soybean aphids; assay: Field trapping of male and gynoparous soybean aphids with synthetic sex pheromone lures; assay type: in vivo, Aphis glycines; details: synthetic pheromone lures 10 mg, soybean fields (FIG. 12)
Protocol: FIG. 16 is a graph of mean number of winged soybean aphids caught in water traps baited with different combinations of catnip oil and the two pheromone compounds (n=5, columns with no letters in common are significant different, ANOVA followed by FPLSD test, P<0.05)
as §2

[8] = system: gynoparous female antennae of soybean aphids; assay: EAG dose-response of gynoparous female soybean aphid antennae to synthetic pheromone compounds; set-up: species or system Aphis glycines; details: when pheromone exceeded a 1 mg dosage (FIG. 11 lower)
Description: FIG. 11 is two graphs of EAG dose-response curves from male (upper part) and gynoparous female antennae (lower part) of soybean aphids to synthetic pheromone candidate compounds (n=4; different letters within a series indicate significant differences, ANOVA followed by FPLSD test, P<0.05)
EAG dose-responses of male and gynoparous soybean aphids to the identified sex pheromone compounds.

## OCCc1ccccc1 [2-phenylethanol]
[1]
  attraction of syrphids to baited traps: strongest attraction
[2]
  EAG responses of winged soybean aphids: significantly stronger than the control

## CC(=O)CCC=C(C)C [6-methyl-5-hepten-2-one]
[2]
  EAG responses of winged soybean aphids: significantly stronger than the control

## CCC/C=C/C=O [(E)-2 hexenal]
[2]
  EAG responses of winged soybean aphids: highest response

## CC/C=C\CCO [(Z)-3 Hexenol]
[2]
  EAG responses of winged soybean aphids: significantly stronger than the control

## CC/C=C\CCOC(C)=O [(Z)-3 hexenyl acetate]
[2]
  EAG responses of winged soybean aphids: significantly stronger than the control

## O=Cc1ccccc1 [benzaldehyde]
[3]
  number of winged soybean aphids caught per trap: caught the most
[2]
  EAG responses of winged soybean aphids: significantly stronger than the control

## C=CC(C)(O)CCC=C(C)C (stereo not shown) [linalool]
[2]
  EAG responses of winged soybean aphids: significantly stronger than the control

## COC(=O)c1ccccc1O [methyl salicylate]
[4]
  attraction of adults of Coccinella septempunctata to baited traps: significantly attractive
[5]; caged potted soybean plants treated vs untreated (FIG. 17 lower)
  growth of wingless soybean aphids on soybean leaves: suppress the growth
[5]; caged potted soybean plants treated vs untreated (FIG. 17 upper)
  soybean aphid colonizing on soybean plants (winged aphids found on potted plants): significantly reducing
[6]
  number of Harmonia axyridis caught in baited traps: not significantly differed from the control
[1]
  attraction of syrphids to baited traps: attracted to some syrphids
[2]
  EAG responses of winged soybean aphids: significantly stronger than the control

## CC1=CO[C@@H](O)[C@H]2[C@@H]1CC[C@@H]2C [nepetalactol, (1R,4aS,7S,7aR)-nepetalactol]
[7]
  number of male and gynoparous soybean aphids caught in traps: Significantly lower catches

## CC1=COC(=O)[C@H]2[C@@H]1CC[C@@H]2C [nepetalactone, (4aS,7S,7aR)-nepetalactone]
[8]
  EAG response of gynoparous female antennae: higher EAG response
[7]
  number of male and gynoparous soybean aphids caught in traps: Significantly lower catches

## C=CC(C)=CCC=C(C)C [ocimene]
[2]
  EAG responses of winged soybean aphids: significantly stronger than the control
